Results on 14 compounds are retold here after ChEMBL document CHEMBL1145340, “Potential lead for an Alzheimer drug: a peptide that blocks intermolecular interaction and amyloid beta protein-induced cytotoxicity” (J Med Chem, 2006).

Test [1] has as its system PC-12. The test is described as follows: Protection against beta amyloid 42-induced neurotoxicity in rat PC12 cells by MTT reduction assay. It counts as functional, cell-based.
Test [2] deals with Amyloid-beta precursor protein (Homo sapiens) (UniProt P05067). The test is described as follows: Binding affinity to beta amyloid 42 by ELISA.
Chain of Amyloid-beta precursor protein (Homo sapiens) (P05067 whole entry): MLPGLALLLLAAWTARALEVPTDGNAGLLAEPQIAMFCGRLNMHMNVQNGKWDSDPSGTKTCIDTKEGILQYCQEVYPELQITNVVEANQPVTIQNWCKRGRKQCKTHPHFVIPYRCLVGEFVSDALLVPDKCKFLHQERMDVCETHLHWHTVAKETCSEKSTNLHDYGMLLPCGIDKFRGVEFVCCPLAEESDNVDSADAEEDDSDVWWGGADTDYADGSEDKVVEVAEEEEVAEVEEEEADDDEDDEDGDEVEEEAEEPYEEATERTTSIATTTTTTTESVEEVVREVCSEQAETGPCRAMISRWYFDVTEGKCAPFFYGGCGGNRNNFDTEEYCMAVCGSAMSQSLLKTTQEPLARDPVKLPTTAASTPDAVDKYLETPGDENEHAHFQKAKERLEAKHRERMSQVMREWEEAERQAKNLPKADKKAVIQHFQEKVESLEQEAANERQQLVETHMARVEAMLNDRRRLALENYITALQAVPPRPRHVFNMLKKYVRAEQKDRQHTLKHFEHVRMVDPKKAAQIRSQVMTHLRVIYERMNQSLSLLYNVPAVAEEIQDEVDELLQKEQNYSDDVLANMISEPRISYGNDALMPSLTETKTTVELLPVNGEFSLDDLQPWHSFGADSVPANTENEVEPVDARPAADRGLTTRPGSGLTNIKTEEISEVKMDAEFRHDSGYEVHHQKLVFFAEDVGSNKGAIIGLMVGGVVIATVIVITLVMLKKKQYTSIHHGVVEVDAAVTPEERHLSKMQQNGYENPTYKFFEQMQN
The target is the same in test [3]. The test is described as follows: Inhibition of self-aggregation of beta amyloid 42 by thioflavin T assay. It counts as functional.
For test [4] the target is unchanged. The experiment in a line: Binding affinity to beta amyloid 42 at 10 uM to 100 uM by ELISA.
The test system of test [5] is PC-12. The test is described as follows: Neutralizing activity against beta amyloid 42-induced cytotoxicity in rat PC12 cells at 100 uM by MTT reduction assay. It counts as functional, cell-based.

Active and inactive are the calls of the source. No cut-off for these calls is given here. Peptide text beside a SMILES is read from it.

As to `CC(C)[C@H](NC(=O)[C@H](Cc1ccccc1)NC(=O)[C@@H](NC(=O)[C@@H](N)CS)[C@H](C)O)C(=O)N[C@@H](CCCN=C(N)N)C(=O)O`, the result in test [1] was inactive. In addition, the result in test [2] was Active.

As to `CC(C)[C@H](NC(=O)[C@H](Cc1ccccc1)NC(=O)[C@@H](N)[C@H](C)O)C(=O)N[C@@H](CCCN=C(N)N)C(=O)N[C@H](C(=O)O)[C@H](C)O`, in test [1], the outcome was inactive.

Regarding H-CKEHQ-OH, the outcome in test [1] was inactive.

With H-FVRTH-OH, the outcome in test [1] was inactive.

For the compound H-HESNDCTFV-OH, the result in test [2] was inactive.

For H-FNHKKRLLHPSLFPR-OH, the outcome in test [2] and in test [3] was inactive.

For the compound H-THIFC-OH, the outcome in test [1] was inactive.

Take H-VRTHI-OH: the outcome in test [1] was inactive.

Consider H-KEHQF-OH, for which the result in test [1] and in test [3] was inactive.

Take `CC[C@H](C)[C@H](NC(=O)[C@H](Cc1c[nH]cn1)NC(=O)[C@@H](NC(=O)[C@H](CCCN=C(N)N)NC(=O)[C@@H](NC(=O)[C@H](Cc1ccccc1)NC(=O)[C@@H](NC(=O)[C@@H](N)CS)[C@@H](C)O)C(C)C)[C@@H](C)O)C(=O)N[C@@H](Cc1ccccc1)C(=O)N[C@@H](CS)C(=O)N[C@@H](CCCCN)C(=O)N[C@@H](CCC(=O)O)C(=O)N[C@@H](Cc1c[nH]cn1)C(=O)N[C@@H](CCC(N)=O)C(=O)N[C@@H](Cc1ccccc1)C(=O)O` (H-CTFVRTHIFCKEHQF-OH): the Activity entry in test [1] and in test [3] was “Dose-dependent effect” in each case. Besides, the outcome in test [2] was Active.

On to H-IFCKE-OH, for which the result in test [1] was inactive.

As for H-HIFCK-OH, the result in test [1] was inactive.

For H-FCKEH-OH, in test [1], the outcome was inactive.

Regarding H-HESNDCTFVRT-OH, the outcome in test [4] was Active. In addition, the outcome in test [5] was inactive.
